Test results from publication PMC11784652, “Two complementing in vivo selection systems based on CCA-trimming exonucleases as a tool to monitor, select and evaluate enzymatic features of tRNA nucleotidyltransferases” (RNA Biology, 2025).
Numbering of substitutions follows the chain as printed.

How the values were obtained:
[1] = biological target: T1, HsaCCA (human CCA-adding enzyme, tRNA nucleotidyltransferase) (Homo sapiens, UniProt Q96Q11); test: DRaCALA (nitrocellulose radioligand spot assay); format: binding; details: 4 °C, 10 min, HEPES/KOH pH 7.6, 30 mM KCl, 6 mM MgCl2, no tRNA; 1 nM labelled compound (α-32P)
T1 construct: gene TRNT1; N-terminal His-tag, pET28a(+), expressed in E. coli BL21(DE3) delta-cca
T1 sequence (Q96Q11 30-434): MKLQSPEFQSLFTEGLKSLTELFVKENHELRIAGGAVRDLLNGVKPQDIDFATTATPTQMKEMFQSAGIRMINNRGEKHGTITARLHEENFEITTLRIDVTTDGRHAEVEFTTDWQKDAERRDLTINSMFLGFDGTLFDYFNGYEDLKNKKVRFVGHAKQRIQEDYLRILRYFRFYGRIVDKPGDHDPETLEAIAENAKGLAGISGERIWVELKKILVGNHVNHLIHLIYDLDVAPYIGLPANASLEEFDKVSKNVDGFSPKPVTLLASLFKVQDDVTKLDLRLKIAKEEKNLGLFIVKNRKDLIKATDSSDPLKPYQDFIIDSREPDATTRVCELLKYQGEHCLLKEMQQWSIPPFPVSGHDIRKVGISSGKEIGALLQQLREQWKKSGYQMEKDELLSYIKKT

[2] = biological target: T2, HsaCCA (human CCA-adding enzyme, tRNA nucleotidyltransferase) (Homo sapiens, UniProt Q96Q11, E193G); test: DRaCALA (nitrocellulose radioligand spot assay); format: binding; details: 4 °C, 10 min, HEPES/KOH pH 7.6, 30 mM KCl, 6 mM MgCl2, no tRNA; 1 nM labelled compound (α-32P)
T2 construct: gene TRNT1; N-terminal His-tag, pET28a(+), expressed in E. coli BL21(DE3) delta-cca
T2 sequence (Q96Q11 30-434 E193G): T1 sequence (Q96Q11 30-434) with E164G

[3] = biological target: T1, HsaCCA (human CCA-adding enzyme, tRNA nucleotidyltransferase); test: in vitro nucleotide incorporation on […]-labelled yeast tRNA-Phe-CC; format: biochemical; details: 1 mM ATP, A-addition, co-substrate tRNA-Phe-CC, 37 °C; no binding to apoenzyme detected by DRaCALA

SMILES	DRaCALA (nitrocellulose radioligand spot assay) [1]	DRaCALA (nitrocellulose radioligand spot assay) [2]	in vitro nucleotide incorporation on 32P-labelled yeast tRNA-Phe-CC [3]
Nc1ccn([C@@H]2O[C@H](COP(=O)(O)OP(=O)(O)OP(=O)(O)O)[C@@H](O)[C@H]2O)c(=O)n1 [CTP]	Both HsaCCA wt and HsaCCA E164G showed robust interaction with CTP	CTP binding of HsaCCA E164G seems to be less efficient compared to the wt enzyme	
Nc1ncnc2c1ncn2[C@@H]1O[C@H](COP(=O)(O)OP(=O)(O)OP(=O)(O)O)[C@@H](O)[C@H]1O [ATP]			Both enzyme versions readily add the terminal A if NTPs (N) or only ATP
